In one assay the target is T1, rat P2X7 (Rattus norvegicus, UniProt Q64663).
T1 sequence (Q64663 1-595): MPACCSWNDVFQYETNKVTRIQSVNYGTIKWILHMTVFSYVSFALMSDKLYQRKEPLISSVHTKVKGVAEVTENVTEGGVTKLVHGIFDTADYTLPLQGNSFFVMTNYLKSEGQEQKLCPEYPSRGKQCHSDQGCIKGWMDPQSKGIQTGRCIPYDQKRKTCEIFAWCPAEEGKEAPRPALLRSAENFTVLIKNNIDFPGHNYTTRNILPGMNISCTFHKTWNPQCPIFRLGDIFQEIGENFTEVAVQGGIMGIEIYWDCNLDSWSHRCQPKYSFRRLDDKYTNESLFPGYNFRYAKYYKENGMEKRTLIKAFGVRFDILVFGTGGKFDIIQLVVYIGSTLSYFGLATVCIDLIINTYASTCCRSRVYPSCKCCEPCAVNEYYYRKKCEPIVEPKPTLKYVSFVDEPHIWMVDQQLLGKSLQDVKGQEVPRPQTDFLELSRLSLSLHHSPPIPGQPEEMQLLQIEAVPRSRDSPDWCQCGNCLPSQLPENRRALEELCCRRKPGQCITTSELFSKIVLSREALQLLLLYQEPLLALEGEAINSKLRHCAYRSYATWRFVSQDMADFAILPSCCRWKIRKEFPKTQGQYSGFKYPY
In words: Ca2+ flux (FLIPR) in 1321N1 cells expressing recombinant rat P2X7 channel. As to conditions: FLIPR (rat) IC50 (μM), 250 μM BzATP. (In general: Calcium flux is commonly read through the fluorescence of an indicator in the cells.)

A further assay concerns the target T2, P2X7 (Homo sapiens, UniProt Q99572).
T2 sequence (Q99572 1-595): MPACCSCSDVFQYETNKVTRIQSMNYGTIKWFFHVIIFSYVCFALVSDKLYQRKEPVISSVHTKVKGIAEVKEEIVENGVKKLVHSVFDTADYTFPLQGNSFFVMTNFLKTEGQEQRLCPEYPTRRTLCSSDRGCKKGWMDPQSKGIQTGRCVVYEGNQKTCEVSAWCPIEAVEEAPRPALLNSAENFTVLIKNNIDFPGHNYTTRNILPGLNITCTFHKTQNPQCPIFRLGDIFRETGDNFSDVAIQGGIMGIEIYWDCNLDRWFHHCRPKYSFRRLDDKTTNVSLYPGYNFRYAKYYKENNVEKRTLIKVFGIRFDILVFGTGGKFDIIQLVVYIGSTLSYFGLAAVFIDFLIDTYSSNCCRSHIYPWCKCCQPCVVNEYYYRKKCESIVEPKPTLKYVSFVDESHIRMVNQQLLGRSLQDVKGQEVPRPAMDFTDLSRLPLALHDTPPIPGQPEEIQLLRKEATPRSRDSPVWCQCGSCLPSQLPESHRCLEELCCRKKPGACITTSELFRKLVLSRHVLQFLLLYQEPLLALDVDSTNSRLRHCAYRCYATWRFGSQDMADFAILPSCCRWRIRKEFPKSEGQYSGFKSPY
Briefly: Ca2+ flux (FLIPR) in 1321N1 cells expressing recombinant human P2X7 channel. Format: cell-based. The following applies: 250 μM BzATP. Further details: expressed in transfected cells; host or cells: 1321N1 cells. How it is done: P2X7 Antagonism in Recombinant Human P2X7 Cells or Recombinant Rat P2X7 Cells: (a) Ca^2+ Flux and (b) Radioligand Binding
(a) Ca^2+ flux: 1321N1 cells expressing the recombinant human or rat P2X7 channel was cultured in HyQ DME/(HyClone/Dulbecco's Modified Eagle Medium) high glucose supplemented with 10% Fetal Bovine Serum (FBS) and appropriate selection marker. Cells were seeded at a density of 25000 cells/well (96-well clear bottom black walled plates) in 100 μl volume/well. On the day of the experiment, cell plates were washed with assay buffer, containing (in mM): 130 NaCl, 2 KCl, 1 CaCl2), 1 MgCl2, 10 HEPES, 5 glucose; pH 7.40 and 300 mOs. After the wash, cells were loaded with the Calcium-4 dye (Molecular Device) and incubated in the dark for 60 minutes. Test compounds were prepared at 250× the test concentration in neat DMSO. Intermediate 96-well compound plates were prepared by transferring 1.2 μL of the compound into 300 μL of assay buffer. A further 3× dilution occurred when transferring 50 μL/well of the compound plate to 100 μL/well in the cell plate. Cells were incubated with test compounds and dye for 30 minutes. […] The fluorescence change was measured 180 seconds after adding the agonist.

In general, IC50 refers to the concentration that inhibits the measured activity by half.

As to `O=C(c1cccc(C(F)(F)F)c1Cl)N1CCn2c(nnc2C(F)(F)F)C1c1ccn[nH]1` (racemic) [Example 126, (±)-(8-(1H-pyrazol-5-yl)-3-(trifluoromethyl)-5,6-dihydro-[1,2,4]triazolo[4,3-a]pyrazin-7(8H)-yl)(2-chloro-3-(trifluoromethyl)phenyl)methanone], the IC50 was more than 10 µM on rat P2X7 and 1.55 µM on P2X7.
Turning to `CC1Cn2c(nnc2C(F)(F)F)C(c2ccccc2)N1C(=O)c1cccc(C(F)(F)F)c1Cl` (racemic) [Example 130, (±)-(2-chloro-3-(trifluoromethyl)phenyl)(6-methyl-8-phenyl-3-(trifluoromethyl)-5,6-dihydro-[1,2,4]triazolo[4,3-a]pyrazin-7(8H)-yl)methanone], the IC50 at rat P2X7 and on P2X7 was more than 10 µM in each case.
As to `C[C@H]1Cn2c(nnc2-c2ccc(C(F)(F)F)cc2)CN1C(=O)c1cccc(Cl)c1Cl` [Example 26, (S)-(2,3-dichlorophenyl)(6-methyl-3-(4-(trifluoromethyl)phenyl)-5,6-dihydro-[1,2,4]triazolo[4,3-a]pyrazin-7(8H)-yl)methanone], the half-maximal inhibitory concentration (IC50) at rat P2X7 stood at 3.95 µM; on P2X7, 4.13 µM.
Turning to `C[C@H]1Cn2c(nnc2-c2ccc(C(F)(F)F)cc2)CN1C(=O)c1cccc(C(F)(F)F)c1Cl` [Example 27, (S)-(2-chloro-3-(trifluoromethyl)phenyl)(6-methyl-3-(4-(trifluoromethyl)phenyl)-5,6-dihydro-[1,2,4]triazolo[4,3-a]pyrazin-7(8H)-yl)methanone], the IC50 at rat P2X7 was determined as 2.96 µM; at P2X7, 1.66 µM.
Regarding `C[C@H]1Cn2c(nnc2-c2ccc(C(F)(F)F)c(F)c2)CN1C(=O)c1cccc(Cl)c1Cl` [Example 28, (S)-(2,3-dichlorophenyl)(3-(3-fluoro-4-(trifluoromethyl)phenyl)-6-methyl-5,6-dihydro-[1,2,4]triazolo[4,3-a]pyrazin-7(8H)-yl)methanone], the IC50 at rat P2X7 was 3.78 µM; on P2X7 it was 7.48 µM.
On to `C[C@H]1Cn2c(nnc2-c2ccc(C(F)(F)F)c(F)c2)CN1C(=O)c1cccc(C(F)(F)F)c1Cl` [Example 29, (S)-(2-chloro-3-(trifluoromethyl)phenyl)(3-(3-fluoro-4-(trifluoromethyl)phenyl)-6-methyl-5,6-dihydro-[1,2,4]triazolo[4,3-a]pyrazin-7(8H)-yl)methanone], for which the IC50 on rat P2X7 turned out to be 2.97 µM; at P2X7, 3.55 µM.
Consider `CC1CN(C(=O)c2cccc(Cl)c2Cl)Cc2nnc(-c3ccccn3)n21` (centres unmarked) [Example 34, (2,3-dichlorophenyl)(5-methyl-3-(pyridin-2-yl)-5,6-dihydro-[1,2,4]triazolo[4,3-a]pyrazin-7(8H)-yl)methanone], for which the IC50 on rat P2X7 was more than 10 µM; at P2X7, 12.9 µM.
For the compound `CC1c2nnc(-c3ccc(C(F)(F)F)cc3)n2CCN1C(=O)c1cccc(C(F)(F)F)c1Cl` (centres unmarked) [Example 35, (2-chloro-3-(trifluoromethyl)phenyl)(8-methyl-3-(4-(trifluoromethyl)phenyl)-5,6-dihydro-[1,2,4]triazolo[4,3-a]pyrazin-7(8H)-yl)methanone], the IC50 on rat P2X7 and at P2X7 was more than 10 µM throughout.
In the case of `C[C@H]1Cn2c(nnc2-c2ccccc2F)CN1C(=O)c1cccc(C(F)(F)F)c1Cl` [Example 39, (S)-(2-chloro-3-(trifluoromethyl)phenyl)(3-(2-fluorophenyl)-6-methyl-5,6-dihydro-[1,2,4]triazolo[4,3-a]pyrazin-7(8H)-yl)methanone], the IC50 was found to be 9.44 µM at rat P2X7 and 2.43 µM on P2X7.
As for `C[C@H]1Cn2c(nnc2-c2ccccc2F)CN1C(=O)c1ccc(F)c(Cl)c1Cl` [Example 40, (S)-(2,3-dichloro-4-fluorophenyl)(3-(2-fluorophenyl)-6-methyl-5,6-dihydro-[1,2,4]triazolo[4,3-a]pyrazin-7(8H)-yl)methanone], the IC50 on rat P2X7 was determined as 14.8 µM; at P2X7, 9.04 µM.
With `C[C@H]1Cn2c(nnc2-c2cccc(F)c2)CN1C(=O)c1cccc(Cl)c1Cl` [Example 41, (S)-(2,3-dichlorophenyl)(3-(3-fluorophenyl)-6-methyl-5,6-dihydro-[1,2,4]triazolo[4,3-a]pyrazin-7(8H)-yl)methanone], the IC50 on rat P2X7 is 10.7 µM; at P2X7, more than 10 µM.
On to `C[C@H]1Cn2c(nnc2-c2cccc(F)c2F)CN1C(=O)c1cccc(Cl)c1Cl` [Example 44, (S)-(2,3-dichlorophenyl)(3-(2,3-difluorophenyl)-6-methyl-5,6-dihydro-[1,2,4]triazolo[4,3-a]pyrazin-7(8H)-yl)methanone], for which the IC50 amounted to 1.46 µM at rat P2X7 and 3.92 µM at P2X7.
`C[C@H]1Cn2c(nnc2-c2cccc(F)c2F)CN1C(=O)c1cccc(C(F)(F)F)c1Cl` [Example 45, (S)-(2-chloro-3-(trifluoromethyl)phenyl)(3-(2,3-difluorophenyl)-6-methyl-5,6-dihydro-[1,2,4]triazolo[4,3-a]pyrazin-7(8H)-yl)methanone]: the IC50 at rat P2X7 turned out to be 0.408 µM; at P2X7, 1.82 µM.
For `C[C@H]1Cn2c(nnc2-c2cccc(F)c2F)CN1C(=O)c1ccc(F)c(Cl)c1Cl` [Example 46, (S)-(2,3-dichloro-4-fluorophenyl)(3-(2,3-difluorophenyl)-6-methyl-5,6-dihydro-[1,2,4]triazolo[4,3-a]pyrazin-7(8H)-yl)methanone] the same measures were 2.42 µM and 2.54 µM.
For `C[C@H]1Cn2c(nnc2-c2ccc(F)c(F)c2)CN1C(=O)c1cccc(Cl)c1Cl` [Example 47, (S)-(2,3-dichlorophenyl)(3-(3,4-difluorophenyl)-6-methyl-5,6-dihydro-[1,2,4]triazolo[4,3-a]pyrazin-7(8H)-yl)methanone] the same measures were 1.61 µM and 10.4 µM.
For `C[C@H]1Cn2c(nnc2-c2ccc(F)c(F)c2)CN1C(=O)c1cccc(C(F)(F)F)c1Cl` [Example 48, (S)-(2-chloro-3-(trifluoromethyl)phenyl)(3-(3,4-difluorophenyl)-6-methyl-5,6-dihydro-[1,2,4]triazolo[4,3-a]pyrazin-7(8H)-yl)methanone] the same measures were 0.637 µM and 1.66 µM.
Consider `C[C@H]1Cn2c(nnc2-c2ccc(F)c(F)c2)CN1C(=O)c1ccc(F)c(Cl)c1Cl` [Example 49, (S)-(2,3-dichloro-4-fluorophenyl)(3-(3,4-difluorophenyl)-6-methyl-5,6-dihydro-[1,2,4]triazolo[4,3-a]pyrazin-7(8H)-yl)methanone], for which the results for the IC50 on rat P2X7 and on P2X7 were 2.73 µM and 4.11 µM, respectively.
As for `C[C@H]1Cn2c(nnc2-c2ccc(F)cc2F)CN1C(=O)c1cccc(C(F)(F)F)c1Cl` [Example 51, (S)-(2-chloro-3-(trifluoromethyl)phenyl)(3-(2,4-difluorophenyl)-6-methyl-5,6-dihydro-[1,2,4]triazolo[4,3-a]pyrazin-7(8H)-yl)methanone], the IC50 at rat P2X7 was determined as 0.578 µM; at P2X7, 1.93 µM.
For `C[C@H]1Cn2c(nnc2-c2ccc(F)cc2F)CN1C(=O)c1ccc(F)c(Cl)c1Cl` [Example 52, (S)-(2,3-dichloro-4-fluorophenyl)(3-(2,4-difluorophenyl)-6-methyl-5,6-dihydro-[1,2,4]triazolo[4,3-a]pyrazin-7(8H)-yl)methanone] the same measures were 2.09 µM and 7.05 µM.

For the origin of these results see patent US12338243B2, “P2X7 modulators” (JANSSEN PHARMACEUTICA NV, priority 2014, dated 2025).
